Laboratory results taken from PMC12406195, “Understanding the Modes of Action of β‑Ketoiminato Iridium(III) Complexes in Cancer Cells” (Inorganic Chemistry, 2025).

Assays:
MDA-MB-231 cells = experiment: Chemosensitivity (MTT cell viability) assay, MDA-MB-231; format: cell-based, human; conditions: for IC50: n = 9; for Selectivity index (SI): MDA-MB-231 compared to ARPE-19, 96 h
Protocol: (§1) All cytotoxicity assays were conducted using human cell lines: breast adenocarcinomas (MDA-MB-231 and MCF-7), pancreatic carcinoma (MIA PaCa-2) and non-cancerous epithelial retinal (ARPE-19) cell lines. All cell lines were routinely maintained as monolayer cultures in appropriate complete media:
(§2) MCF-7, MIA PaCa-2 and ARPE-19 in high glucose DMEM and MDA-MB-231 in RPMI-1640, and both media were supplemented with 10% FBS, 1 mM sodium pyruvate, 2 mM L-glutamine, and 1% pen-strep. All cells were initially grown in T-25 or T-75 flasks at 37 °C and 5% CO2. Before chemosensitivity studies, cell monolayers were passaged using trypsin-EDTA (0.05%) and diluted to a concentration of 1 x 10^4 cells/mL (or 4 x 10^4 cells mL for 24 h assays). All assays were conducted in 96-well plates, in which 100 µL of the cell suspension was added for 24 h at 37 °C and 5% CO2, and then 100 µL of compound/medium dilutions for a further 96 h (or 24 h). All compound stocks were made using sterile DMSO at 100 mM before dilution, and a maximum of 0.1% DMSO was used in each assay. After incubation, 3-(4,5-dimethylthiazol-2-yl)-2,5-diphenyltetrazolium bromide (20 µL, 5 mg/mL in PBS) was added to each well and incubated for 3 h at 37°C and 5% CO2. All solutions were then aspirated, DMSO (150 µL) added to each well, gently mixed, and the absorbance was measured at 540 nm using a ClarioStar spectrophotometer microplate reader. Results were plotted on a logarithmic scale, and the half maximal inhibitory concentration (IC50) was determined from a triplicate of triplicate repeats (n = 9) and reported as an IC 50 ± Standard Deviation (SD).

MCF-7 cells = experiment: Chemosensitivity (MTT cell viability) assay, MCF-7; format: cell-based, human; conditions: for IC50: MCF-7, 96 h, n = 9; for Selectivity index (SI): MCF-7 compared to ARPE-19, 96 h
Protocol: as §1, §2

MIA PaCa-2 cells = experiment: Chemosensitivity (MTT cell viability) assay, MIA PaCa-2; format: cell-based, human; conditions: for IC50: MIA PaCa-2, 96 h, n = 9; for Selectivity index (SI): MIA PaCa-2 compared to ARPE-19, 96 h
Protocol: as §1, §2

ARPE-19 cells = experiment: Chemosensitivity (MTT cell viability) assay, noncancerous ARPE-19; format: cell-based, human; conditions: ARPE-19 noncancerous, 96 h, n = 9
Protocol: The cytotoxicity of the compounds against the cancer cell lines was also compared to the noncancerous retinal epithelial cell line, ARPE-19, to determine the possibility of cancer cell selectivity. […]
as §1, §2

[1] = Stability by UV/vis spectroscopy in fully supplemented phenol-red free media; format: physicochemical; conditions: 37 °C, monitored over 96 h
Protocol: d6/D2O mixture (70/30) spiked with 0.1 M NaCl for 96 hours, before HR -MS was conducted; these are […]
Stability Assay by NMR Spectroscopy
Compounds 1-4 (3-4 mg) were dissolved in a 500 µL mixture of 90% DMSO -d6 and 10% D2O. 1H and 31P NMR spectra were obtained by a Bruker Avance 500 MHz at room temperature and multiple time points over 4 days. A solution of sodium chloride in D2O (26.3 g/L, 143 µL) was added to the same samples (final concentration 0.1 M NaCl in 70 % DMSO-d6 and 30% D2O) to mimic the chloride concentration in blood. 1H and 31P NMR spectra were obtained by a Bruker Avance 500 MHz at room temperature and multiple time points over 4 days.
Stability Assays by UV/vis Spectroscopy
The compounds were dissolved in DMSO and added to fully supplemented DMEM phenol-red free media (see Cell Viability Assays section for all additives) under sterile conditions to obtain a final concentration of 60 µg/mL. UV/vis spectra were obtained every 30 min for 96 h at 37 °C.
as §1
MCF-7, MIA PaCa-2 and ARPE-19 in high glucose DMEM and MDA-MB-231 in RPMI-1640, and both media were supplemented with 10% FBS, 1 mM sodium pyruvate, 2 mM L-glutamine, and 1% pen-strep. All cells were initially grown in T-25 or T-75 flasks at 37 °C and 5% CO2. […] All solutions were then aspirated, DMSO (150 µL) added to each well, gently mixed, and the absorbance was measured at 540 nm using a ClarioStar spectrophotometer microplate reader. Results were plotted on a logarithmic scale, and the half maximal inhibitory concentration (IC50) was determined from a triplicate of triplicate repeats (n = 9) and reported as an IC 50 ± Standard Deviation (SD).

plasmid DNA = experiment: Plasmid DNA interaction, agarose gel electrophoresis; format: biochemical; conditions: 200 ng plasmid DNA, 100–400 μM, cell-free
Protocol: The ability of compounds to intercalate, nick, or cleave DNA can be evaluated using gel electrophoresis with plasmid DNA. In this study, in vitro plasmid DNA assays were performed by incubating 200 ng of plasmid DNA with different concentrations (100–400 μM) of 1 or CDDP, which served as a positive control. The DNA fragments were then separated via agarose gel electrophoresis, and potential changes in DNA migration patterns were analyzed.
5 Plasmid DNA (200 ng) was incubated with varying concentrations (100, 200, and 400 μM) of compound 1 or CDDP for 24 h at room temperature. The DNA was then separated via agarose gel electrophoresis, and the intensity of supercoiled and nicked circular DNA bands was quantified and expressed as mean ± SEM (n = 4).
MDA-MB-231 cells at 4000 cells/well were seeded into a black clear -bottom 96-well plate using phenol-red free complete RMPI medium, and incubated for 48 h. […] Fluorescence images were obtained using a Zeiss Observer 7 inverted microscope at excitation at 488 nm and emission at 509 […]
Plasmid DNA (200 ng, pBOS -H2B-GFP, BD Biosciences) was incubated overnight at room temperature with 1 or CDDP at concentrations between 100 and 400 μM in double -distilled H2O (20 μL total volume). […] The experiment was conducted in two biological replicates, and the band intensities were quantified and analyzed using ImageJ software. […]

| Molecule | IC50 (MDA-MB-231 cells; MDA-MB-231, 24 h) | IC50 (MDA-MB-231 cells; MDA-MB-231, 96 h) | Selectivity index (SI) (MDA-MB-231 cells) | IC50 (MCF-7 cells) | Selectivity index (SI) (MCF-7 cells) | IC50 (MIA PaCa-2 cells) | Selectivity index (SI) (MIA PaCa-2 cells) | IC50 (ARPE-19 cells) | Time to full decomposition (no further changes in UV/vis spectra) [1] | Plasmid DNA migration (plasmid DNA) |
| --- | --- | --- | --- | --- | --- | --- | --- | --- | --- | --- |
| [Cp*Ir(C16H13BrNO)(PTA)](PF6) [Compound 3] | 22 ± 1 µM | 4.8 ± 0.5 µM | 3.0 | 32.4 ± 0.3 µM | 0.5 | 11.2 ± 0.1 µM | 1.3 | 14.6 ± 0.8 µM | over 96 h |  |
| [Cp*Ir(C18H18NO2)(PTA)](PF6) [Compound 4] | 36 ± 1 µM | 4.1 ± 0.5 µM | 2.6 | 34.3 ± 0.6 µM | 0.3 | 10 ± 1 µM | 1.1 | 10.7 ± 0.4 µM | 72 h |  |
| [NH2][Pt]([NH2])([Cl])[Cl] [CDDP, cisplatin, reference compound] | > 100 µM | 2.2 ± 0.3 µM | 2.7 | 6.1 ± 0.9 µM | 1.0 | 3.9 ± 0.6 µM | 1.5 | 6 ± 0.2 µM |  | faster DNA migration |
| [Cp*Ir(C16H12Cl2NO)(PTA)](PF6) [Compound 2] | 21 ± 1 µM | 5.4 ± 0.3 µM | 3.0 | 45.1 ± 0.8 µM | 0.4 | 14.9 ± 0.7 µM | 1.1 | 16 ± 1 µM | 64 h |  |
| N.N.O=C([O-])C1(C(=O)[O-])CCC1.[Pt+2] [CARB, carboplatin, reference compound] | > 100 µM | 16 ± 1 µM | > 6.3 | 40 ± 1 µM | > 2.5 | 40 ± 4 µM | > 2.5 | > 100 µM |  |  |
